Results on eight compounds are retold here after ChEMBL document CHEMBL1147400, “Novel antimitotic dibenzocyclo-octadiene lignan constituents of the stem bark of Steganotaenia araliacea” (1993).

≈ marks a conversion by molar mass, not a printed value. Where only a bound is given, the exact number is not on record here.

One assay has as its system SK-MEL-2. Description: Cytotoxicity against human SK-MEL-2 cells. Format: functional. The settings on record: read-out: ED50 (the source's name).
The nature of assay [1]: Antimitotic activity against rat ASK cells assessed as reversal of astrocyte morphology at 100 ug/ml. Format: functional.
The species named for assay [2] is Bos taurus. Description: Inhibition of calf brain tubulin polymerization by turbidimetric analysis.
Assay [3] in a line: Cytotoxicity against human BC1 cells. It is filed as functional. The settings on record: read-out: ED50 (the source's name).
Assay [4] can be described thus: Antimitotic activity against rat ASK cells assessed as reversal of astrocyte morphology at 0.8 ug/ml. Format: functional.
Assay [5] in a line: Cytotoxicity against multidrug-resistant human KBV1 cells. It is filed as functional. The settings on record: KB-V1, read-out: ED50 (the source's name).
Another assay has as its system LNCaP. Description: Cytotoxicity against human LNCAP cells. The settings on record: read-out: ED50 (the source's name). Format: functional.
Another assay has as its system A-431. Description: Cytotoxicity against human A431 cells. The settings on record: read-out: ED50 (the source's name). Format: functional.
Assay [6] in a line: Antimitotic activity against rat ASK cells assessed as reversal of astrocyte morphology at 4 ug/ml. Format: functional.
Another assay has as its system ZR-75-1. Description: Cytotoxicity against human ZR-75-1 cells. Format: functional. The settings on record: read-out: ED50 (the source's name).
A short description of assay [7]: Cytotoxicity against human U373 cells. Format: functional, U-373MG ATCC. The settings on record: U373 MG, read-out: ED50 (the source's name).
The test system of a further assay is Col2. Description: Cytotoxicity against human Col2 cells. Format: functional. The settings on record: read-out: ED50 (the source's name).
For a further assay, the system named is KB. Description: Cytotoxicity against human KB cells. It is filed as functional. The settings on record: read-out: ED50 (the source's name).
The subject of another assay is HT. The assay can be described thus: Cytotoxicity against human HT cells. It is filed as functional. The settings on record: read-out: ED50 (the source's name).
A further assay relates to Lu1. The assay can be described thus: Cytotoxicity against human Lu1 cells. It is filed as functional. The settings on record: read-out: ED50 (the source's name).
Assay [8] is described as follows: Antimitotic activity against rat ASK cells assessed as reversal of astrocyte morphology at 20 ug/ml. Format: functional.
The species named for assay [9] is Bos taurus. The assay can be described thus: Inhibition of calf thymus tubulin polymerization by turbidimetric analysis.
Assay [10] in a line: Antimitotic activity against rat ASK cells assessed as reversal of astrocyte morphology at 0.16 ug/ml. It is filed as functional.
Assay [11] can be described thus: Antimitotic activity against rat ASK cells assessed as reversal of astrocyte morphology at 0.032 ug/ml. It is filed as functional.
Assay [12] can be described thus: Antimitotic activity against rat ASK cells assessed as reversal of astrocyte morphology at 0.0064 ug/ml. Format: functional.
Assay [13] is described as follows: Antimitotic activity against rat ASK cells assessed as reversal of astrocyte morphology at 0.00128 ug/ml. Format: functional.

For the compound `C/C=C(/C)C(=O)O[C@@H]1c2cc3c(cc2-c2c(cc(OC)c(OC)c2OC)C[C@H]2C(=O)OC[C@H]12)OCO3` [EPISTEGANANGIN], the EC50 with SK-MEL-2 was 20 µg/mL (≈ 40.3 µM); in assay [3], 1.1 µg/mL (≈ 2.22 µM); in assay [5], 0.9 µg/mL (≈ 1.81 µM); in the assay with LNCaP, above 20 µg/mL; with A-431 it was above 20 µg/mL; with ZR-75-1, 13.9 µg/mL (≈ 28 µM). Also, the EC50 in assay [7] is above 20 µg/mL; in the assay on Col2 it was above 20 µg/mL; in the assay with KB, 7.4 µg/mL (≈ 14.9 µM); in the assay with HT, 7.4 µg/mL (≈ 14.9 µM); in the assay on Lu1 it was 6.9 µg/mL (≈ 13.9 µM). Also, the Activity in [1] is recorded as 100%; in [4], 0%; in assay [6] it was 0%; in assay [8], 0%. In addition, in the assay filed under Bos taurus [2], the ED50 was determined as 78.1 µg/mL (≈ 157 µM).
Consider `COC[C@@H]1Cc2cc3c(cc2-c2c(c(OC)cc(OC)c2OC)C[C@H]1C(=O)OC)OCO3`, for which the EC50 is 14.9 µg/mL (≈ 33.5 µM) in the assay with SK-MEL-2; 17.3 µg/mL (≈ 38.9 µM) in assay [3]; 0.8 µg/mL (≈ 1.8 µM) in [5]; above 20 µg/mL with LNCaP; 6.7 µg/mL (≈ 15.1 µM) with A-431; 4.7 µg/mL (≈ 10.6 µM) in the assay with ZR-75-1. The EC50 in assay [7] came out at 7.8 µg/mL (≈ 17.5 µM); with Col2, 9.6 µg/mL (≈ 21.6 µM); with KB it was 9.2 µg/mL (≈ 20.7 µM); in the assay with HT it was 11.5 µg/mL (≈ 25.9 µM); in the assay with Lu1 it was 5.5 µg/mL (≈ 12.4 µM). Moreover, the values for the Activity in assay [1], in assay [6] and in [8] were 100%, 0% and 100%, respectively. In the assay listed under Bos taurus [9], this compound came in with an ED50 of 59.3 µg/mL (≈ 133 µM).
With `COC[C@@H]1Cc2cc3c(cc2-c2c(ccc(OC)c2OC)C[C@@H]1C(=O)OC)OCO3`, the EC50 (with SK-MEL-2; in assay [3]; in assay [5]; with LNCaP; with A-431; in the assay on ZR-75-1) was above 20 µg/mL in each case. For the same compound, the EC50 (in [7]; in the assay with Col2; in the assay with KB; in the assay with HT; in the assay with Lu1) was above 20 µg/mL in each case. The Activity in assay [1] amounted to 40%; in assay [4], 0%; in [6], 0%; in assay [8] it was 0%. The compound further had an ED50 in the assay filed under Bos taurus [9] of 76.9 µg/mL (≈ 186 µM).
Regarding `COc1cc2c(c(OC)c1OC)-c1cc3c(cc1[C@@H](OC(C)=O)C1COC(=O)[C@H]1C2)OCO3` (stereo not given in full) [STEGANACIN], the EC50 in the assay on SK-MEL-2 was above 20 µg/mL; in assay [3] it was 0.6 µg/mL (≈ 1.31 µM); in assay [5], 0.2 µg/mL (≈ 0.438 µM); in the assay on A-431, 0.2 µg/mL (≈ 0.438 µM); in the assay on ZR-75-1, 5 µg/mL (≈ 11 µM); in assay [7] it was 0.1 µg/mL (≈ 0.219 µM). Moreover, the EC50 is 0.4 µg/mL (≈ 0.876 µM) in the assay on Col2, 0.1 µg/mL (≈ 0.219 µM) in the assay with KB, 0.7 µg/mL (≈ 1.53 µM) in the assay with HT and 0.4 µg/mL (≈ 0.876 µM) with Lu1. Besides, the Activity was 100% in [1]; 100% in [4]; 100% in assay [10]; 100% in assay [6]; “Dose-dependent effect” in the assay filed under Bos taurus [9]; 0% in assay [11]. Moreover, the Activity in assay [8] is given as 100%. The ED50 in the assay filed under Bos taurus [2] is 1.7 µg/mL (≈ 3.72 µM).
With `C/C=C(/C)C(=O)O[C@H]1c2cc3c(cc2-c2c(cc(OC)c(OC)c2OC)C[C@H]2C(=O)OC[C@@H]21)OCO3` [STEGANANGIN], the EC50 in the assay on SK-MEL-2 is 0.7 µg/mL (≈ 1.41 µM); in [3], 0.7 µg/mL (≈ 1.41 µM); in assay [5] it was 0.7 µg/mL (≈ 1.41 µM); in the assay with LNCaP, 0.9 µg/mL (≈ 1.81 µM); in the assay on A-431, above 20 µg/mL; in the assay with ZR-75-1, 1 µg/mL (≈ 2.01 µM). Besides, the EC50 is above 20 µg/mL in assay [7]; 0.6 µg/mL (≈ 1.21 µM) in the assay with Col2; 0.4 µg/mL (≈ 0.806 µM) in the assay with KB; 0.6 µg/mL (≈ 1.21 µM) with HT; 0.4 µg/mL (≈ 0.806 µM) with Lu1. Moreover, the Activity in [1] was 100%; in assay [4], 100%; in [10], 50%; in [12] it was 0%; in [6] it was 100%; in assay [11], 0%. Moreover, the Activity in assay [8] is recorded as 100%. The ED50 in the assay listed under Bos taurus [2] was 38.1 µg/mL (≈ 76.7 µM).
For the compound `COc1cc2c(c(OC)c1OC)-c1ccc(OC)c(=O)cc1[C@@H](NC(C)=O)CC2` [COLCHICINE], the EC50 was 0.007 µg/mL (≈ 0.0175 µM) in the assay with SK-MEL-2; 0.008 µg/mL (≈ 0.02 µM) in [3]; 3.5 µg/mL (≈ 8.76 µM) in assay [5]; 0.06 µg/mL (≈ 0.15 µM) in the assay with LNCaP; 0.002 µg/mL (≈ 0.00501 µM) in the assay on A-431; 0.1 µg/mL (≈ 0.25 µM) in the assay with ZR-75-1. Moreover, the EC50 in assay [7] was found to be 0.005 µg/mL (≈ 0.0125 µM); in the assay with Col2 it was 0.001 µg/mL (≈ 0.0025 µM); in the assay with KB, 0.02 µg/mL (≈ 0.0501 µM); in the assay with HT, 0.004 µg/mL (≈ 0.01 µM); in the assay on Lu1, 0.02 µg/mL (≈ 0.0501 µM). Further, the Activity in [1] was 100%; in [13] it was 0%; in [4] it was 70%; in assay [10] it was 0%; in assay [12], 0%; in [6], 100%. The Activity in assay [11] was found to be 0%; in [8], 100%. The ED50 in the assay listed under Bos taurus [2] was 7.4 µg/mL (≈ 18.5 µM).
For the compound `COc1cc2c(c(OC)c1OC)-c1cc3c(cc1C(=O)[C@H]1COC(=O)[C@@H]1C2)OCO3`, the EC50 in the assay with SK-MEL-2 is above 20 µg/mL; in assay [3] it was 1.8 µg/mL (≈ 4.36 µM); in [5] it was 7.1 µg/mL (≈ 17.2 µM); in the assay on LNCaP it was 2 µg/mL (≈ 4.85 µM); in the assay with A-431, above 20 µg/mL; with ZR-75-1, above 20 µg/mL. The EC50 in assay [7] was above 20 µg/mL; with Col2, 2.1 µg/mL (≈ 5.09 µM); in the assay on KB, 1.5 µg/mL (≈ 3.64 µM); with HT, 0.7 µg/mL (≈ 1.7 µM); in the assay on Lu1, 1 µg/mL (≈ 2.42 µM). Also, the Activity was found to be 100% in [1]; 100% in [4]; 0% in [10]; 0% in [12]; 100% in [6]; 0% in [11]. In [8], the Activity stood at 100%. Further, in the assay listed under Bos taurus [2], the ED50 worked out at 68.2 µg/mL (≈ 165 µM).
Take `COc1cc2c(c(OC)c1OC)C[C@H]1COC(=O)[C@@H]1Cc1c-2cc(OC)c(OC)c1OC` [STEGANOLIDE A]: the EC50 was determined as 9.2 µg/mL (≈ 20.7 µM) with SK-MEL-2; 8 µg/mL (≈ 18 µM) in assay [3]; 0.8 µg/mL (≈ 1.8 µM) in [5]; 9 µg/mL (≈ 20.2 µM) in the assay with LNCaP; 5.5 µg/mL (≈ 12.4 µM) in the assay with A-431; 8.9 µg/mL (≈ 20 µM) in the assay with ZR-75-1. For the same compound, the EC50 in assay [7] worked out at 3.1 µg/mL (≈ 6.97 µM); in the assay with Col2, 5.1 µg/mL (≈ 11.5 µM); with KB, 4.9 µg/mL (≈ 11 µM); in the assay on HT, 6.5 µg/mL (≈ 14.6 µM); in the assay with Lu1, 5.5 µg/mL (≈ 12.4 µM). Further, the Activity in assay [1] is 100%; in assay [4] it was 0%; in assay [10], 0%; in [6], 0%; in assay [11], 0%; in assay [8] it was 100%.
